Like-named read-outs stand apart in the source and are kept apart here.
What was measured:
S. aureus ATCC 25923 [1] = assay: Antibacterial activity, pre-exposure (planktonic cells and biofilm formation); assay type: cell-based, Staphylococcus aureus; details: for Average inhibition %, biofilms biomass / Average inhibition %, biofilms viability / Average inhibition %, planktonic cells turbidity / Average inhibition %, planktonic cells viability: ± SD
Outline: (§1)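 Compounds are diluted in DMSO and plated, then bacteria are added to test prevention of growth and biofilm formation. After 18 h at 37 °C with shaking, planktonic OD and resazurin fluorescence are measured. Washed biofilms receive resazurin (30 min S. aureus, 60 min A. baumannii, 90 min P. aeruginosa, 37 °C), then crystal violet.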

S. aureus ATCC 25923 [2] = assay: Antibacterial activity, post-exposure on preformed 18-h-old biofilms; assay type: cell-based, Staphylococcus aureus; details: ± SD
Outline: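 Compounds were applied to preformed 18-h biofilms after medium change and left 24 h. Read-outs: planktonic OD plus resazurin fluorescence (20 μM), biofilm metabolic activity by resazurin 30 min at 37 °C, then biomass by crystal violet absorbance at 595 nm after ethanol fixation.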

S. aureus ATCC 12598 = assay: Antibacterial activity, pre-exposure; assay type: cell-based, Staphylococcus aureus; details: for Average inhibition %, biofilms biomass / Average inhibition %, biofilms viability / Average inhibition %, planktonic cells turbidity / Average inhibition %, planktonic cells viability: S. aureus ATCC 12598, pre-exposure, ± SD
Outline: as §1

A. baumannii NCTC 13423 = assay: Antibacterial activity, pre-exposure; assay type: cell-based, Acinetobacter baumannii; details: for Average inhibition %, biofilms biomass / Average inhibition %, biofilms viability / Average inhibition %, planktonic cells turbidity / Average inhibition %, planktonic cells viability: A. baumannii NCTC 13423, pre-exposure, ± SD
Outline: as §1

P. aeruginosa ATCC 9027 = assay: Antibacterial activity, pre-exposure; assay type: cell-based, Pseudomonas aeruginosa; details: for Average inhibition %, biofilms biomass / Average inhibition %, biofilms viability / Average inhibition %, planktonic cells turbidity / Average inhibition %, planktonic cells viability: P. aeruginosa ATCC 9027, pre-exposure, ± SD
Outline: as §1

Substance: 2-Amino-2-(4-decylbenzyl)propane-1,3-diol [Compound 45]
- MIC S. aureus ATCC 25923 (S. aureus ATCC 25923 [1]; lowest concentration with no visible growth (>90% inhibition of turbidity and viability of planktonic cells), 18 h): 5 to 10 µM
- MIC (S. aureus ATCC 25923 [1]; lowest concentration with no visible growth (>90% inhibition of turbidity and viability of planktonic cells), 18 h, read-out: MIC S. aureus ATCC 25923): 10 µM
- Average inhibition %, biofilms biomass (S. aureus ATCC 25923 [1]; pre-exposure, 5 µM): 45.3 ± 46.5%
- Average inhibition %, biofilms viability (S. aureus ATCC 25923 [1]; pre-exposure, 5 µM): 45.4 ± 46.1%
- Average inhibition %, planktonic cells turbidity (S. aureus ATCC 25923 [1]; pre-exposure, 5 µM): 45.7 ± 46.9%
- Average inhibition %, planktonic cells viability (S. aureus ATCC 25923 [1]; pre-exposure, 5 µM): 41.5 ± 50.3%
- Average inhibition %, biofilms biomass (S. aureus ATCC 25923 [1]; pre-exposure, 10 µM): 92.5 ± 4.8%
- Average inhibition %, biofilms viability (S. aureus ATCC 25923 [1]; pre-exposure, 10 µM): 98.9 ± 0.5%
- Average inhibition %, planktonic cells turbidity (S. aureus ATCC 25923 [1]; pre-exposure, 10 µM): 99 ± 0.7%
- Average inhibition %, planktonic cells viability (S. aureus ATCC 25923 [1]; pre-exposure, 10 µM): 99.8 ± 0.1%
- Average inhibition %, biofilms biomass (S. aureus ATCC 25923 [1]; pre-exposure, 15 µM): 91.8 ± 4.7%
- Average inhibition %, biofilms viability (S. aureus ATCC 25923 [1]; pre-exposure, 15 µM): 99.7 ± 0.1%
- Average inhibition %, planktonic cells turbidity (S. aureus ATCC 25923 [1]; pre-exposure, 15 µM): 98.9 ± 0.7%
- Average inhibition %, planktonic cells viability (S. aureus ATCC 25923 [1]; pre-exposure, 15 µM): 99.7 ± 0.1%
- Average inhibition %, biofilms biomass (S. aureus ATCC 25923 [1]; pre-exposure, 25 µM): 91.8 ± 5.6%
- Average inhibition %, biofilms viability (S. aureus ATCC 25923 [1]; pre-exposure, 25 µM): 99.7 ± 0%
- Average inhibition %, planktonic cells turbidity (S. aureus ATCC 25923 [1]; pre-exposure, 25 µM): 98.6 ± 0.6%
- Average inhibition %, planktonic cells viability (S. aureus ATCC 25923 [1]; pre-exposure, 25 µM): 99.8 ± 0.2%
- MIC (S. aureus ATCC 25923 [1]; pre-exposure, lowest value among replicates, read-out: MIC S. aureus ATCC 25923, for some replicates): 5 µM
- MIC (S. aureus) (S. aureus ATCC 25923 [1]; supplementary molecular formula strings sheet): 5 to 10 µM
- Average inhibition %, biofilms biomass (S. aureus ATCC 25923 [2]; 25 µM): 36.9 ± 3%
- Average inhibition %, biofilms viability (S. aureus ATCC 25923 [2]; 25 µM): 15.5 ± 10.9%
- Average inhibition %, planktonic cells turbidity (S. aureus ATCC 25923 [2]; 25 µM): 9.2 ± 8.6%
- Average inhibition %, planktonic cells viability (S. aureus ATCC 25923 [2]; 25 µM): 1 ± 1.7%
- Average inhibition %, biofilms biomass (S. aureus ATCC 25923 [2]; 50 µM): 39.5 ± 9%
- Average inhibition %, biofilms viability (S. aureus ATCC 25923 [2]; 50 µM): 25.2 ± 5.5%
- Average inhibition %, planktonic cells turbidity (S. aureus ATCC 25923 [2]; 50 µM): 28.1 ± 16.3%
- Average inhibition %, planktonic cells viability (S. aureus ATCC 25923 [2]; 50 µM): 22.5 ± 18.5%
- Average inhibition %, biofilms biomass (S. aureus ATCC 25923 [2]; 100 µM): 51.3 ± 5.8%
- Average inhibition %, biofilms viability (S. aureus ATCC 25923 [2]; 100 µM): 23.1 ± 10.2%
- Average inhibition %, planktonic cells turbidity (S. aureus ATCC 25923 [2]; 100 µM): 45.7 ± 12.8%
- Average inhibition %, planktonic cells viability (S. aureus ATCC 25923 [2]; 100 µM): 59.7 ± 16.4%
- Average inhibition %, biofilms biomass (S. aureus ATCC 25923 [2]; 200 µM): 47.7 ± 12.7%
- Average inhibition %, biofilms viability (S. aureus ATCC 25923 [2]; 200 µM): 17.1 ± 16.5%
- Average inhibition %, planktonic cells turbidity (S. aureus ATCC 25923 [2]; 200 µM): 53.9 ± 18.7%
- Average inhibition %, planktonic cells viability (S. aureus ATCC 25923 [2]; 200 µM): 70.7 ± 12.5%
- Average inhibition %, biofilms biomass (S. aureus ATCC 12598; 5 µM): 75.4 ± 28.1%
- Average inhibition %, biofilms viability (S. aureus ATCC 12598; 5 µM): 83.6 ± 38.2%
- Average inhibition %, planktonic cells turbidity (S. aureus ATCC 12598; 5 µM): 89.3 ± 24.1%
- Average inhibition %, planktonic cells viability (S. aureus ATCC 12598; 5 µM): 83.4 ± 39.6%
- Average inhibition %, biofilms biomass (S. aureus ATCC 12598; 10 µM): 95.3 ± 0.4%
- Average inhibition %, biofilms viability (S. aureus ATCC 12598; 10 µM): 99.6 ± 0.1%
- Average inhibition %, planktonic cells turbidity (S. aureus ATCC 12598; 10 µM): 99.4 ± 0%
- Average inhibition %, planktonic cells viability (S. aureus ATCC 12598; 10 µM): 99.8 ± 0%
- Average inhibition %, biofilms biomass (S. aureus ATCC 12598; 15 µM): 94.4 ± 0.3%
- Average inhibition %, biofilms viability (S. aureus ATCC 12598; 15 µM): 99.6 ± 0.1%
- Average inhibition %, planktonic cells turbidity (S. aureus ATCC 12598; 15 µM): 99.1 ± 0%
- Average inhibition %, planktonic cells viability (S. aureus ATCC 12598; 15 µM): 99.8 ± 0%
- Average inhibition %, biofilms biomass (S. aureus ATCC 12598; 25 µM): 94.9 ± 1%
- Average inhibition %, biofilms viability (S. aureus ATCC 12598; 25 µM): 99.6 ± 0.1%
- Average inhibition %, planktonic cells turbidity (S. aureus ATCC 12598; 25 µM): 98.3 ± 0.2%
- Average inhibition %, planktonic cells viability (S. aureus ATCC 12598; 25 µM): 99.8 ± 0.1%
- MIC S. aureus ATCC 12598 (S. aureus ATCC 12598; pre-exposure, 18 h): 5 to 10 µM
- Average inhibition %, biofilms biomass (A. baumannii NCTC 13423; 10 µM): 0 ± 0%
- Average inhibition %, biofilms viability (A. baumannii NCTC 13423; 10 µM): 2.1 ± 3.6%
- Average inhibition %, planktonic cells turbidity (A. baumannii NCTC 13423; 10 µM): 0 ± 0%
- Average inhibition %, planktonic cells viability (A. baumannii NCTC 13423; 10 µM): 4.8 ± 2.9%
- Average inhibition %, biofilms biomass (A. baumannii NCTC 13423; 15 µM): 1 ± 1.8%
- Average inhibition %, biofilms viability (A. baumannii NCTC 13423; 15 µM): 0.5 ± 0.8%
- Average inhibition %, planktonic cells turbidity (A. baumannii NCTC 13423; 15 µM): 0 ± 0%
- Average inhibition %, planktonic cells viability (A. baumannii NCTC 13423; 15 µM): 2.8 ± 3.8%
- Average inhibition %, biofilms biomass (A. baumannii NCTC 13423; 25 µM): 0 ± 0%
- Average inhibition %, biofilms viability (A. baumannii NCTC 13423; 25 µM): 2.7 ± 4%
- Average inhibition %, planktonic cells turbidity (A. baumannii NCTC 13423; 25 µM): 0 ± 0%
- Average inhibition %, planktonic cells viability (A. baumannii NCTC 13423; 25 µM): 0 ± 0%
- Average inhibition %, biofilms biomass (A. baumannii NCTC 13423; 50 µM): 0.7 ± 1.3%
- Average inhibition %, biofilms viability (A. baumannii NCTC 13423; 50 µM): 6.5 ± 7.4%
- Average inhibition %, planktonic cells turbidity (A. baumannii NCTC 13423; 50 µM): 0 ± 0%
- Average inhibition %, planktonic cells viability (A. baumannii NCTC 13423; 50 µM): 0 ± 0%
- MIC A. baumannii NCTC 13423 (A. baumannii NCTC 13423; pre-exposure, Inactive = no activity up to 50 μM, > = some inhibition but no MIC reached): Inactive
- Average inhibition %, biofilms biomass (P. aeruginosa ATCC 9027; 50 µM): 5 ± 3.4%
- Average inhibition %, biofilms viability (P. aeruginosa ATCC 9027; 50 µM): 8.1 ± 10.9%
- Average inhibition %, planktonic cells turbidity (P. aeruginosa ATCC 9027; 50 µM): 31.3 ± 5.3%
- Average inhibition %, planktonic cells viability (P. aeruginosa ATCC 9027; 50 µM): 24.4 ± 2.7%
- Average inhibition %, biofilms biomass (P. aeruginosa ATCC 9027; 100 µM): 2.5 ± 4.4%
- Average inhibition %, biofilms viability (P. aeruginosa ATCC 9027; 100 µM): 4 ± 6.6%
- Average inhibition %, planktonic cells turbidity (P. aeruginosa ATCC 9027; 100 µM): 41.8 ± 6%
- Average inhibition %, planktonic cells viability (P. aeruginosa ATCC 9027; 100 µM): 30 ± 7.6%
- Average inhibition %, biofilms biomass (P. aeruginosa ATCC 9027; 150 µM): 1.6 ± 2.8%
- Average inhibition %, biofilms viability (P. aeruginosa ATCC 9027; 150 µM): 1.9 ± 2.9%
- Average inhibition %, planktonic cells turbidity (P. aeruginosa ATCC 9027; 150 µM): 39.3 ± 3.3%
- Average inhibition %, planktonic cells viability (P. aeruginosa ATCC 9027; 150 µM): 36.5 ± 11.5%
- Average inhibition %, biofilms biomass (P. aeruginosa ATCC 9027; 200 µM): 0 ± 0%
- Average inhibition %, biofilms viability (P. aeruginosa ATCC 9027; 200 µM): 0 ± 0%
- Average inhibition %, planktonic cells turbidity (P. aeruginosa ATCC 9027; 200 µM): 40.7 ± 6.2%
- Average inhibition %, planktonic cells viability (P. aeruginosa ATCC 9027; 200 µM): 22.9 ± 11.2%
- MIC P. aeruginosa ATCC 9027 (P. aeruginosa ATCC 9027; pre-exposure, Inactive = no activity up to 200 μM, > = some inhibition but no MIC reached): Inactive

— PMC8296573, “Synthesis and Biological Evaluation of Fingolimod Derivatives as Antibacterial Agents” (ACS Omega, 2021)
